Measurements published in ChEMBL document CHEMBL1149826, “Chemical constituents and diversity of Ligularia lankongensis in Yunnan Province of China” (2008).
Active and inactive are the calls of the source. The rule behind the calls is not given here.

Test system: Bacillus subtilis
Assay: Antibacterial activity against Bacillus subtilis PCI219 assessed as inhibition zone diameter at […] after 24 hrs by paper disk diffusion assay
Type: functional

## C=C(C(CC1OC1(C)C)OC(=O)/C(C)=C\C)[C@H]1[C@H](OC(=O)/C(C)=C\C)[C@H]2O[C@@]2(C)[C@@H](O)[C@H]1OC(=O)/C(C)=C\C (some centres not stated)
  Activity: Active

## CC[C@H]1OC(=O)[C@H](C)[C@@H](O[C@H]2C[C@@](C)(OC)[C@@H](O)[C@H](C)O2)[C@H](C)[C@@H](O[C@@H]2O[C@H](C)C[C@H](N(C)C)[C@H]2O)[C@](C)(O)C[C@@H](C)C(=O)[C@H](C)[C@@H](O)[C@]1(C)O [ERYTHROMYCIN]
PCI219, 24 h, read-out: IZ
  zone of inhibition at 10 mg/kg: 31 mm
